According to US20210105999A1, “COMPOSITIONS FOR PROLONGING THE SURVIVAL AFTER ORTHOTOPIC AND HETEROTOPIC XENOGENEIC HEART, KIDNEY, LUNG OR LIVER TRANSPLANTATIONS” (priority 2018, published 2021):
Blank lines part the entries; values can stand above or below the molecule they belong to.

Legend:
[1] = target: T1, phosphorylated mTOR (Sus scrofa, UniProt F1RHR8); experiment: Western blot analysis of myocardium of transplanted hearts, phosphorylated mTOR; format: in vivo, pig; settings: experiment 67 (group III), after treatment with temsirolimus, compared to control (Co)
T1 construct: heart samples were homogenized in Laemmli-extraction-buffer; from tissue; host or cells: myocardium of GTKO/hCD46/hTM pig donor hearts transplanted orthotopically into baboons (Papio anubis); control: non-transplanted pig heart
Method: For protein extraction, heart samples were homogenized in Laemmli-extraction-buffer, and the protein content was estimated by the bicinchoninic acid (BCA, Merck, Darmstadt, Germany) protein assay. 20 μg of total protein was separated by 10% SDS-PAGE and transferred to polyvinylidene difluoride (PDVF) membranes (Millipore, Billerica, USA) by electroblotting. Membranes were washed in Tris-buffered saline solution with 0.1% Tween-20 (Merck) (TBS-T) and blocked in 5% w/v fat-free milk powder (Roth, Karlsruhe, Germany) for 1 h at room temperature. Then membranes were washed again in TBS-T and incubated in 5% w/v BSA (Roth) of the appropriate primary antibody overnight at 4° C. […] Bound antibodies were detected using an enhanced chemiluminescence detection reagent (ECL Advance Western Blotting Detection Kit, GE Healthcare, Munich, Germany) and appropriate x-ray films (GE Healthcare). […]
For protein extraction, heart samples were homogenized in Laemmli sample buffer and the protein content was estimated using the bicinchoninic acid (BCA, Merck) protein assay. […] Bound antibodies were detected using an enhanced chemiluminescence detection reagent (ECL Advance Western Blotting Detection Kit, GE Healthcare) and appropriate X-ray films (GE Healthcare). […]

[2] = tested on: transplanted GT-KO/hCD46/hTM porcine donor heart; experiment: Life-supporting orthotopic pig-to-baboon cardiac xenotransplantation; format: in vivo, baboon (Papio Anubis)
Source text: Seven juvenile pigs of cross-bred genetic backround (German Landrace and Large White, blood group 0) served as donors for heart xenotransplantation. All organs were homozygous for alpha 1,3-galactosyltransferase knockout (GT-KO), and transgeneic for hCD46/thrombomodulin (hTM) (Revivicor, Blacksburg, Va., USA and Institute for Molecular Animal Breeding and Biotechnology, Gene Center, Faculty of Veterinary Medicine, Ludwig-Maximilians-University, Munich, Germany). Localisation and stability of hCD46/hTM expression was verified post-mortem by immunohistochemistry (FIG. 15). Donor heart function and absence of valvular defects were evaluated 7 days prior to transplantation by echocardiographies. Seven male captive-bred baboons (Papio Anubis, blood groups B and AB) were used as recipients.
The recipient's thorax was opened at midline. Unfractionated heparin (500 IU/kg; Heparin-Natrium-25000-ratiopharm, ratiopharm GmbH, Ulm, Germany) was given and the heart-lung machine connected, using both caval veins and the ascending aorta. Cardiopulmonary bypass commenced and the recipient cooled (30° C. in group I, 34° C. in groups II and III). After crossclamping the ascending aorta, the recipient's heart was excised at the atrial levels, both large vessels were cut. The porcine donor heart was transplanted applying Shumway's and Lower's technique (cf. reference 8).
Immunosuppression was based on Mohiuddin's regimen (cf. reference 5; there were changes as indicated in the following), with C1 esterase inhibitor instead of cobra venom factor for complement inhibition. Induction consisted of anti-CD20 antibody (Mabthera; Roche Pharma AG, Grenzach-Wyhlen, Germany), ATG (Thymoglobuline, Sanofi-Aventis Germany GmbH, Frankfurt, Germany), and either anti-CD40 antibody (mouse/rhesus chimeric IgG4 clone 2C10R4, NIH Nonhuman Primate Reagent Resource, Mass Biologicals, Boston, Mass., USA; courtesy of Keith Reimann) or humanised anti-CD40L pasylated Fab (production: Wacker-Chemie, Burghausen, Germany; purification: XL-protein GmbH, Freising, Germany; courtesy of Arne Skerra, cf. reference 9). Maintenance immunosuppression consisted of MMF (CellCept, Roche, Basle, Switzerland; trough level 2-3 μg/ml), either anti-CD40 antibody or anti-CD40L pasylated Fab, methylprednisolone (Urbasone solubile, Sanofi-Aventis Germany GmbH, Frankfurt, Germany). Anti-inflammatory therapy included II-6-receptor antibody (RoActemra, Roche Pharma AG, Grenzach-Wyhlen, Germany), TNFα inhibitor (Enbrel, Pfizer Pharma GmbH, Berlin, Germany) and II-1-receptor antagonist (Kineret, Swedish Orphan Biovitrum GmbH, Martinsried, Germany). Additive therapy: acetylsalicylic acid (Aspirin, Bayer Vital GmbH, Leverkusen, Germany), unfractionated heparin (Heparin-Natrium-25000-ratiopharm, ratiopharm GmbH, Ulm, Germany), C1 esterase inhibitor (Berinert, CSL Behring GmbH, Hattersheim, Germany), ganciclovir (Cymevene, Roche Pharma AG, Grenzach-Wyhlen, Germany), cefuroxime (Cefuroxim Hikma, Hikma Pharma GmbH, Martinsried, Germany) and epoetin beta (NeoRecormon 5000IU, Roche Pharma AG, Grenzach-Wyhlen, Germany).
Starting from 10 mg/kg/d, methylprednisolone was tapered down 1 mg/kg every 10 days in group I and II; in group III, methylprednisolone was tapered down to 0.1 mg/kg within 19 days. […]
Transthoracic echocardiographies were done in analgosedation at regular intervals using an HP Sonos 7500 (HP Inc., Palo Alto, Calif., USA); midpapillary short axis views were recorded. […]

[3] = tested on: PCNA; experiment: Western blot analysis of myocardium of transplanted hearts, PCNA; format: in vivo, pig; settings: experiment 67 (group III), after treatment with temsirolimus, compared to control (Co)
Method: For protein extraction, heart samples were homogenized in Laemmli-extraction-buffer, and the protein content was estimated by the bicinchoninic acid (BCA, Merck, Darmstadt, Germany) protein assay. 20 μg of total protein was separated by 10% SDS-PAGE and transferred to polyvinylidene difluoride (PDVF) membranes (Millipore, Billerica, USA) by electroblotting. Membranes were washed in Tris-buffered saline solution with 0.1% Tween-20 (Merck) (TBS-T) and blocked in 5% w/v fat-free milk powder (Roth, Karlsruhe, Germany) for 1 h at room temperature. Then membranes were washed again in TBS-T and incubated in 5% w/v BSA (Roth) of the appropriate primary antibody overnight at 4° C. The following antibodies were used: rabbit anti-human pmTOR (#5536; Cell Signaling, Frankfurt, Germany) and mouse anti-human PCNA (#2586; Cell Signalling). After washing, membranes were incubated in 5% w/v fat-free milk powder with a horseradish peroxidase labelled secondary antibody for 1 h at room temperature. Bound antibodies were detected using an enhanced chemiluminescence detection reagent (ECL Advance Western Blotting Detection Kit, GE Healthcare, Munich, Germany) and appropriate x-ray films (GE Healthcare). After detection, membranes were stripped (Elution buffer: 2% SDS, 62.5 mM Tris/HCl, pH 6.7 and 100 mM […] for 30 min at 70° C.) and incubated with an appropriate second antibody. […]

[4] = target: T2, porcine growth hormone receptor (GHR) (pig, UniProt P19756 19-638); experiment: ligand immunohistochemistry: rat GH on liver and kidney paraffin sections of control and GHR-KO pigs, detected with anti-rat GH antibody and DAB
T2 construct: whole, on cells; Endogenous receptor in tissue sections of control pigs; GHR-KO pigs (frameshift in exon 3) lack it; also called porcine GHR
T2 sequence (looked up): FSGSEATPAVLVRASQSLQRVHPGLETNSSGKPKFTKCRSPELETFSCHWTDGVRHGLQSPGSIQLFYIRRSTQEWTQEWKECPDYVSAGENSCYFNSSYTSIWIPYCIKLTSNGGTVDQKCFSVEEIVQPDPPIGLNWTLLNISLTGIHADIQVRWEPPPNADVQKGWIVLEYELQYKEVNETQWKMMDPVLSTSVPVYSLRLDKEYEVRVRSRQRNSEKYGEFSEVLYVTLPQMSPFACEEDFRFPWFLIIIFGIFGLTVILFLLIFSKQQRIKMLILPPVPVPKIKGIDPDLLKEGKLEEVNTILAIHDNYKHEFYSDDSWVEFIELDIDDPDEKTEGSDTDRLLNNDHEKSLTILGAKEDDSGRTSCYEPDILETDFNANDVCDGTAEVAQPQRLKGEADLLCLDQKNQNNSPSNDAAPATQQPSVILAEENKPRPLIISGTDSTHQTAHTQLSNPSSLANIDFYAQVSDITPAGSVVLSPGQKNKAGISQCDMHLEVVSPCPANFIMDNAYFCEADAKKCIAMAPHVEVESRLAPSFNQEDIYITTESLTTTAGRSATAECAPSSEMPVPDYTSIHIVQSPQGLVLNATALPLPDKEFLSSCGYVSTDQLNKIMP
Method: Liver and kidney tissue of GHR-KO and control pigs was fixed overnight in 4% formaldehyde and routinely embedded in paraffin. Paraffin sections were dewaxed, and endogenous peroxidase and biotin were blocked with 1% H₂O₂ in Tris-buffered saline (TBS) for 15 min and by using the avidin/biotin blocking kit (no. SP-2001; Vector Laboratories), respectively. After blocking with 0.5% fish gelatin for 30 min, the slides were incubated in 0.5 μg/mL recombinant rat GH (no. 16343667, ImmunoTools) in 0.2% fish gelatin solution overnight at 4° C. They were then washed 3 times for 5 min in TBS and incubated in goat anti-rat GH polyclonal antibody solution (dilution 1:2,400, no. AF1566, R&D Systems) for 6 h at room temperature. After 3 washing steps in TBS (10 min each), the slides were incubated in biotinylated rabbit anti-goat IgG solution (dilution 1:100, no. BA-5000, Vector Laboratories) for 1 h at room temperature, washed 3 times for 10 min in TBS, and finally incubated with horseradish peroxidase-labelled avidin biotin complex for 30 min (no. PK-6100, VECTASTAIN Elite ABC-Peroxidase kit, Vector Laboratories). Immunoreactivity was visualized using 3,3′-diaminobenzidine tetrahydrochloride dihydrate (DAB) (brown color). Nuclear counterstaining was performed with Mayer's hemalum (blue color). […]

[5] = group III, with antihypertensive treatment and early glucocorticoid tapering

T1 sequence (F1RHR8 1-2548): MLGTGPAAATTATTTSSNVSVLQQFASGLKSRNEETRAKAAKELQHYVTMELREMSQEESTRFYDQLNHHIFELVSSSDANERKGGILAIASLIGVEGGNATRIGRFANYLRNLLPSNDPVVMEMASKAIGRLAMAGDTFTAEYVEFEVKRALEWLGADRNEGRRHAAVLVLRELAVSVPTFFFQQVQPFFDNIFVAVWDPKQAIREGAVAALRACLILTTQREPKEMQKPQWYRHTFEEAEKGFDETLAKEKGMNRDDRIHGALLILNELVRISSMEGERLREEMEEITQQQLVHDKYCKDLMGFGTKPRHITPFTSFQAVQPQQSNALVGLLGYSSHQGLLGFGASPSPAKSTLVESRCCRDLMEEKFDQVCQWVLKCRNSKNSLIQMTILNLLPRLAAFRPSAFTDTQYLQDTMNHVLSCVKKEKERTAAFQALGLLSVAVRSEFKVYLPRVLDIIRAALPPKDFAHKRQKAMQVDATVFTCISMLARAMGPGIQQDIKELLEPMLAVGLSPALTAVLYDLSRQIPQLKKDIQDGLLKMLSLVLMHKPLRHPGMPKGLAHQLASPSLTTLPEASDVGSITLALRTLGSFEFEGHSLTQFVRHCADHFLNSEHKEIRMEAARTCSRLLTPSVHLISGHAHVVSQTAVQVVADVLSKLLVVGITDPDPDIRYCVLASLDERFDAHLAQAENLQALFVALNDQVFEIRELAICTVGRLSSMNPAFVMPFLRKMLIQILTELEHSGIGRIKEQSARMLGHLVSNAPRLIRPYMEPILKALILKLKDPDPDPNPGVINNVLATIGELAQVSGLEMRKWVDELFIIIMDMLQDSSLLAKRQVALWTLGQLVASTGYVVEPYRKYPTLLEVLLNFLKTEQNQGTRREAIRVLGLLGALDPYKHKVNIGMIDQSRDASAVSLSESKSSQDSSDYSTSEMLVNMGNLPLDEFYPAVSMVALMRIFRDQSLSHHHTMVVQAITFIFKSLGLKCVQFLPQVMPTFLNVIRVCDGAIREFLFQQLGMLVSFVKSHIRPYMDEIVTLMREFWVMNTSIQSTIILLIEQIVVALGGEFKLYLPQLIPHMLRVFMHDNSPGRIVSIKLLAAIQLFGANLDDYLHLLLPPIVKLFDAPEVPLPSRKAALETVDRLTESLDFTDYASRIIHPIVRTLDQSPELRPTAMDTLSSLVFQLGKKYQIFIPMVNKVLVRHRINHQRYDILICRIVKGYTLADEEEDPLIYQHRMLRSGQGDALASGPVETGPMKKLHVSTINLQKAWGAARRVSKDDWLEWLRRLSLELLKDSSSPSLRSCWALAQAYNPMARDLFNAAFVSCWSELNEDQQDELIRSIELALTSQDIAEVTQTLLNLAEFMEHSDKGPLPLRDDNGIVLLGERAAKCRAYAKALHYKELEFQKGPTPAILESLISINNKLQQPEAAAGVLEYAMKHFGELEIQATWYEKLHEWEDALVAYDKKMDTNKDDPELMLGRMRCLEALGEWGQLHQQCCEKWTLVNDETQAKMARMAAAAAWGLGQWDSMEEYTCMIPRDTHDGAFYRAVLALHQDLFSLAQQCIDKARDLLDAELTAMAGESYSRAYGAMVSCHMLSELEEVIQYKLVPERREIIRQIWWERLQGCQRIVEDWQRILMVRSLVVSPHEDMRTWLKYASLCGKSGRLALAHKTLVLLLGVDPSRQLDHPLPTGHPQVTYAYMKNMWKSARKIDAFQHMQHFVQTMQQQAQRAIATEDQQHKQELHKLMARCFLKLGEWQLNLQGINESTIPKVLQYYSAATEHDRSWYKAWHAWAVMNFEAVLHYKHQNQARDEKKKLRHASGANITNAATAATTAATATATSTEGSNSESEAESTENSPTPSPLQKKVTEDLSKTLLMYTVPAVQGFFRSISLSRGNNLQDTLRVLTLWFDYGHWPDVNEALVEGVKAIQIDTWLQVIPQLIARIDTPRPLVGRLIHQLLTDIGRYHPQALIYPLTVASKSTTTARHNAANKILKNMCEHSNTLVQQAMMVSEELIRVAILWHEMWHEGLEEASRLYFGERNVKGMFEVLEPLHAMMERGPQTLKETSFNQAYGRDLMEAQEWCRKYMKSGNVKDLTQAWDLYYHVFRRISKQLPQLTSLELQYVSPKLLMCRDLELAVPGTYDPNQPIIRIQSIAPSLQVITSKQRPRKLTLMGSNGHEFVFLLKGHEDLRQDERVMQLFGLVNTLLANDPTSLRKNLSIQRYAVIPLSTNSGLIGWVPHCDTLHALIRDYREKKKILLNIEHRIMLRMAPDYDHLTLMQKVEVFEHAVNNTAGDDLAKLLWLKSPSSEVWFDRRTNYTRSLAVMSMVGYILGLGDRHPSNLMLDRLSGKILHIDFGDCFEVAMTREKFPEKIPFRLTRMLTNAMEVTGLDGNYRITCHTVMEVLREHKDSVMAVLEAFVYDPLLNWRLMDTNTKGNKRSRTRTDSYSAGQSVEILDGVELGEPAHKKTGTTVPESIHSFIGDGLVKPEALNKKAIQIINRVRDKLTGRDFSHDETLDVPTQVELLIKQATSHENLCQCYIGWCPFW

phosphorylated mTOR in myocardium (Western blot) [1]: downregulated
Molecule: CO[C@H]1C[C@@H]2CC[C@@H](C)[C@@](O)(O2)C(=O)C(=O)N2CCCC[C@H]2C(=O)O[C@H]([C@H](C)C[C@@H]2CC[C@@H](OC(=O)C(C)(CO)CO)[C@H](OC)C2)CC(=O)[C@H](C)/C=C(\C)[C@@H](O)[C@@H](OC)C(=O)[C@H](C)C[C@H](C)/C=C/C=C/C=C/1C [temsirolimus]
pathologic findings described for groups I and II (heart and liver failure, graft overgrowth, myocardial hypertrophy) ([2]; group III recipients: antihypertensive treatment, early glucocorticoid weaning and additional temsirolimus medication): absent
cardiac overgrowth ([2]; group III, combination of blood pressure lowering, early cortisone tapering and temsirolimus): successfully counteracted
myocardial hypertrophy of the transplanted heart [2, 5]: mitigated
obliteration of LV cavity [2, 5]: omitted
growth of the cardiac graft (LV mass) after discontinuation of temsirolimus ([2]; recipients 13 and 14, i.v. temsirolimus discontinued on day 175 and on day 161): increased growth of the cardiac graft
PCNA in myocardium (Western blot) [3]: downregulated

binding result [4]: binds
B1: recombinant rat GH (no. 16343667, ImmunoTools) (ligand, UniProt P01244 27-216, looked up)
chain: FPAMPLSSLFANAVLRAQHLHQLAADTYKEFERAYIPEGQRYSIQNAQAAFCFSETIPAPTGKEEAQQRTDMELLRFSLLLIQSWLGPVQFLSRIFTNSLMFGTSDRVYEKLKDLEEGIQALMQELEDGSPRIGQILKQTYDKFDANMRSDDALLKNYGLLSCFKKDLHKAETYLRVMKCRRFAESSCAF
notes: Used at 0.5 ug/mL as the ligand in ligand immunohistochemistry; Detected with goat anti-rat GH polyclonal antibody; also called growth hormone
